Test results reported in patent US11331326B2, “Composition for prevention or treatment of inflammatory skin diseases or severe pruritus comprising the aqueous solubilized ursodeoxycholic acid” (AMICOGEN PHARMA INC., priority 2016, dated 2022).
≈ marks a conversion by molar mass, not a printed value.

Tests used:
[1] = protonated form (pH 1 to 8); cited from earlier work
[2] = oral administration, crystalline form of UDCA; cited from earlier work
[3] = crystalline type of ursodeoxycholic acid; cited from earlier work
[4] = Solubility of ursodeoxycholic acid in water; assay type: physicochemical; conditions: pH 1 to 8

Row | SMILES | solubility [1] | fraction absorbed at the ileum of the colon by the active transport mechanism [2] | acid dissociation constant, pKa [3] | solubility relative to the commercialized UDCA [4]
1 | C[C@H](CCC(=O)O)[C@H]1CC[C@H]2[C@@H]3[C@@H](O)C[C@@H]4C[C@H](O)CC[C@]4(C)[C@H]3CC[C@]12C [UDCA, ursodeoxycholic acid] | about 0.05 mM | up to 20 % of intakes | about 5.0 | –
2 | C[C@H](CCC(=O)NCCS(=O)(=O)O)[C@H]1CC[C@H]2[C@@H]3[C@@H](O)C[C@@H]4C[C@H](O)CC[C@]4(C)[C@H]3CC[C@]12C [TUDCA, tauroursodeoxycholic acid] | 450 µM (≈ 225 µg/mL) | – | – | about 10 times
